Values quoted from earlier work, collected in patent publication US20190365934A1, “METHODS FOR IN VIVO MONITORING OF DO[…] AND EFFICACY OF TREATMENT AGENTS THEREFOR” (LIKEMINDS, INC., priority 2017, published 2019).

Details: background statement on FDA approved SPECT tracer

COC(=O)[C@H]1[C@@H](c2ccc([123I])cc2)C[C@@H]2CC[C@H]1N2CCCF [[^123I]-FP-CIT, [^123I]-2β-carbomethoxy-3β-(4-iodophenyl)-N-(3-fluoropropyl) nortropane]
stable post-injection: 4 h
